Measured values taken from patent US6103729A, “Cathecol derivatives and a method for the preparation thereof and a pharmaceutical composition containing the same” (Cheil Jedang Corp., priority 1996, dated 2000).

How the values were obtained:
[1] = test system: Wistar rats; assay: Passive Cutanious Anaphylaxis (PCA); assay type: in vivo, rat; settings: oral, female Wistar rats, evans blue read at 620 nm
Procedure: I. Passive Cutanious Anaphylaxis (PCA)
Hair on the back of each of the three 5 weeks old female Wistar rats were cut by clippers. Prepared mouse antiserum was diluted with 50×physiological saline solution. 0.05 ml of diluted antiserum solution was subcutaneously injected into two hair-cut sites on the back of each rat. After 3 hours, the test compounds were orally administered to the rats. After 30 minutes, 0.1% ovalbumin as antigen was mixed with 1% evans blue in the equivalent volumes and 0.1 ml of the mixture was injected in a peripheral vein of the tail of each rat. After 30 minutes, rats were sacrificed by bleeding from the abdominal arteries and their skins were stripped from the subcutaneous injection spots in uniform sizes. After immersing the stripped skins in 1.0 ml of 1.2 N KOH in 9 ml test tube and stopping the tube, a shaking incubation was performed at 37° C. for 24 hours. Then, after the mixtured solution of acetone and 0.6 N phosphoric acid (13:5) was added, the test tube was shaking-incubated for 1 hour and centrifuged to 1,700 g at 20° C. for 10 minutes. After insoluble lipids were removed from the top of the supernatant, the supernatant was measured at 620 nm. IgE was quantified by diluting the mixtured acetone-phosphoric aicd solution and drawing evans blue assay lines. The results are shown in Table I below, in which the amounts of IgE were expressed as μg/ml.

[2] = test system: Phosphodiesterase III; assay: Inhibition of phosphodiesterase activity ([3H]cAMP hydrolysis); assay type: biochemical; settings: PDE partially purified from human U937 cells, 1.0 μM cAMP, 30° C., 20 minutes; test concentration not given
Procedure: (§1) II. Inhibition of Phosphodiesterase IV Activity
(§2) Phosphodiesterase I, II, III, IV or V partially purified from human U937 cells, test compound of Example 1, 2 or 3 and 1.0 μM cAMP including μM [^3 H] cAMP were incubated at 30° C. for 20 minutes. The PDE reaction to convert cAMP into AMP was completed by boiling the reaction solution for 2 minutes. AMP was converted into adenosine by adding snake venom nucleotidase and incubating the reaction solution for 10 minutes. While unhydrolyzed cAMPs were bonded to AG1-X2 resin, the aqueous remaining [^3 H] adenosine was quantified by scintillation counting. The results are shown in Table II below, in which the values indicate inhibition(%) of each PDE by each test compound.

[3] = test system: Phosphodiesterase I; assay: as above; assay type: biochemical; settings: PDE partially purified from human U937 cells, 1.0 μM cAMP, 30° C., 20 minutes; test concentration not given
Procedure: as §1, §2

[4] = molecular target: T1, Phosphodiesterase II (Homo sapiens, UniProt O00408); assay: as above; assay type: biochemical; settings: PDE partially purified from human U937 cells, 1.0 μM cAMP, 30° C., 20 minutes; test concentration not given
T1 construct: partially purified from human U937 cells; endogenous in cells; host or cells: U937 cells (partially purified)
T1 sequence (O00408 whole entry): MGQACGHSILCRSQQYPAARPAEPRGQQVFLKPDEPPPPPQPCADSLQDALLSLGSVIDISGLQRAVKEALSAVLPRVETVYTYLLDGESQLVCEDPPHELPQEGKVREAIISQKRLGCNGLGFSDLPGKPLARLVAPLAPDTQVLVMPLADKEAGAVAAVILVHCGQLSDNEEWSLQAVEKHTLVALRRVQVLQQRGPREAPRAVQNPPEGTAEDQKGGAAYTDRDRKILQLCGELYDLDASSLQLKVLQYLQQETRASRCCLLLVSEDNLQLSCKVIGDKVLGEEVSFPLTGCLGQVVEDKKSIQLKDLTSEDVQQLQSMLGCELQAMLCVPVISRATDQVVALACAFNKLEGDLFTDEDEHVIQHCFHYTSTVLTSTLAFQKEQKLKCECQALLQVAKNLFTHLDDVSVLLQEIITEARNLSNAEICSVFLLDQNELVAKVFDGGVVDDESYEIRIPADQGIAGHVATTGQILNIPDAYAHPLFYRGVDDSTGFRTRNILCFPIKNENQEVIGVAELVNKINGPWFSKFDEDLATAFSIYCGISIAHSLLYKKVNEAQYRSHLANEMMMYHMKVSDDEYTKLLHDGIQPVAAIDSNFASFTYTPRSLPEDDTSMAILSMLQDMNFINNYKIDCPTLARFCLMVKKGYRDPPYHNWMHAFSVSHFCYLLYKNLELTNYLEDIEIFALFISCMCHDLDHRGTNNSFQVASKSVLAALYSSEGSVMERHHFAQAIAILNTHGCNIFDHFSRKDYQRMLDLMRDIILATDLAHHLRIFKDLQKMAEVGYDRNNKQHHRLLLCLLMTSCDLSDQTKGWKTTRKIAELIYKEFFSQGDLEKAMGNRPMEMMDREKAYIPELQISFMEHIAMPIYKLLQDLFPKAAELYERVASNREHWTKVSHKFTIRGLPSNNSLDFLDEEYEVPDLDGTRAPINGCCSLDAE
Procedure: as §1, §2

[5] = molecular target: T2, Phosphodiesterase V (Homo sapiens, UniProt O76074); assay: as above; assay type: biochemical; settings: PDE partially purified from human U937 cells, 1.0 μM cAMP, 30° C., 20 minutes; test concentration not given
T2 construct: printed source human U937 cells (possibly human platelets in practice)
Procedure: as §1, §2

[6] = test system: Phosphodiesterase IV; assay: as above; assay type: biochemical; settings: PDE partially purified from human U937 cells, 1.0 μM cAMP, 30° C., 20 minutes; test concentration not given
Procedure: as §1, §2

COc1ccc(C(=O)Nc2nc[nH]c2C(N)=O)cc1OC1CCCC1 [Example 2]
amounts of IgE ([1]; dose 0.1 mg/rat): 3.381 µg/mL
amounts of IgE ([1]; dose 2.0 mg/rat): 2.694 µg/mL
inhibition(%) of Phosphodiesterase Type III [2]: 67%
inhibition(%) of Phosphodiesterase Type I [3]: 68%
inhibition(%) of Phosphodiesterase Type II [4]: 60%
inhibition(%) of Phosphodiesterase Type V [5]: 61%
inhibition(%) of Phosphodiesterase Type IV [6]: 80%

COc1ccc(C(=O)Nc2ccsc2C(N)=O)cc1OC1CCCC1 [Example 3]
inhibition(%) of Phosphodiesterase Type III [2]: 74%
inhibition(%) of Phosphodiesterase Type I [3]: 67%
inhibition(%) of Phosphodiesterase Type II [4]: 68%
inhibition(%) of Phosphodiesterase Type V [5]: 69%
inhibition(%) of Phosphodiesterase Type IV [6]: 90%

COc1ccc(C(=O)Nc2n[nH]cc2C(N)=O)cc1OC1CCCC1 [Example 1, 3-(3-cyclopentyloxy-4-methoxyphenylcarboxylamido)-1H-4-pyrazolecarboxylamide]
amounts of IgE ([1]; dose 0.1 mg/rat): 4.578 µg/mL
amounts of IgE ([1]; dose 2.0 mg/rat): 4.099 µg/mL
inhibition(%) of Phosphodiesterase Type III [2]: 68%
inhibition(%) of Phosphodiesterase Type I [3]: 58%
inhibition(%) of Phosphodiesterase Type II [4]: 65%
inhibition(%) of Phosphodiesterase Type V [5]: 89%
inhibition(%) of Phosphodiesterase Type IV [6]: 90%
